The results in this text go back to article doi:10.1101/2023.06.27.546672v1 (biorxiv, 2023).

The Kd is the free concentration of one partner at which half of the binding sites on the other are occupied at equilibrium, for simple one-to-one binding.

This assay has as its target T1, apo-sMlaD (Escherichia coli, UniProt P64604).
T1 sequence (P64604 29-183 limits assumed): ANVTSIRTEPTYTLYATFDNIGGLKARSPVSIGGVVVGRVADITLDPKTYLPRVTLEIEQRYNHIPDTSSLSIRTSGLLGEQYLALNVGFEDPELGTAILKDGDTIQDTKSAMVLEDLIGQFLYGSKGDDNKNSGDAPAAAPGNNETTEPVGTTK
The assay can be described thus: isothermal titration calorimetry. In kind it is binding. In general terms: Isothermal titration calorimetry measures the heat released or taken up as one component is titrated into another.

Take `C[C@H](CCC(=O)O)[C@H]1CC[C@H]2[C@@H]3[C@H](O)C[C@@H]4C[C@H](O)CC[C@]4(C)[C@H]3CC[C@]12C` [CDOC]: the Kd came out at 61.6 ± 15.6 µM.
For the molecule `C[C@H](CCC(=O)O)[C@H]1CC[C@H]2[C@@H]3CC[C@@H]4C[C@H](O)CC[C@]4(C)[C@H]3C[C@H](O)[C@]12C` [DOC], the Kd was ~100 µM.
